Measurements as given in the supplement of paper PMC10307832.

What was measured:
Assay in all cases: relative viability (nuclei count vs DMSO), 5 days (fraction); higher = more cells survive
NCI-H647 = system: NCI-H647
Outline: (§1)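 Medians of duplicate plates are given as relative viability. That measure is the nuclei count in treated wells divided by the count in vehicle wells. Counts were taken on 4× images of lung cancer cell lines in 1536-well plates, 5 days after pin-tool dosing the day after seeding with one drug alone or a fixed anchor-drug dose plus five library-drug doses (not always all listed) in √10 steps.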

NCI-H1792 = system: NCI-H1792
Outline: as §1

LK-2 = system: LK-2
Outline: as §1

NCI-H358 = system: NCI-H358
Outline: as §1

NCI-H2347 = system: NCI-H2347
Outline: as §1

COR-L23 = system: COR-L23
Outline: as §1

NCI-H1975 = system: NCI-H1975
Outline: as §1

A-427 = system: A-427
Outline: as §1

NCI-H1437 = system: NCI-H1437
Outline: as §1

SW 900 = system: SW 900
Outline: as §1

NCI-H2009 = system: NCI-H2009
Outline: as §1

SK-MES-1 = system: SK-MES-1
Outline: as §1

NCI-H520 = system: NCI-H520
Outline: as §1

NCI-H460 = system: NCI-H460
Outline: as §1

COR-L 105 = system: COR-L 105
Outline: as §1

NCI-H1650 = system: NCI-H1650
Outline: as §1

HCC-366 = system: HCC-366
Outline: as §1

EPLC-272H = system: EPLC-272H
Outline: as §1

HCC-44 = system: HCC-44
Outline: as §1

HCC-78 = system: HCC-78
Outline: as §1

HOP-62 = system: HOP-62
Outline: as §1

EKVX = system: EKVX
Outline: as §1

Compound `Nc1cccc2c1CN(C1CCC(=O)NC1=O)C2=O` (stereo not given) [Lenalidomide] + CC(=O)Nc1cccc(-n2c(=O)n(C3CC3)c(=O)c3c(Nc4ccc(I)cc4F)n(C)c(=O)c(C)c32)c1 [Trametinib] (partner 0.02 µM) has a relative viability (NCI-H647; first compound 0.253 µM) of 0.47, a relative viability (NCI-H647; first compound 0.8 µM) of 0.413 and a relative viability (NCI-H647; first compound 2.53 µM) of 0.691. For the same compound, the relative viability (NCI-H647; first compound 8 µM) was 0.422, the relative viability (NCI-H1792; first compound 0.253 µM) was 0.445 and the relative viability (NCI-H1792; first compound 0.8 µM) was 0.369. The relative viability (NCI-H1792; first compound 2.53 µM) was 0.59, the relative viability (NCI-H1792; first compound 8 µM) was 0.366 and the relative viability (LK-2; first compound 0.253 µM) was 0.772. The relative viability (LK-2; first compound 0.8 µM) was 0.747, the relative viability (LK-2; first compound 2.53 µM) was 0.746 and the relative viability (LK-2; first compound 8 µM) was 0.717. For the same compound, the relative viability (NCI-H358; first compound 0.8 µM) was 0.132, the relative viability (NCI-H358; first compound 2.53 µM) was 0.133 and the relative viability (NCI-H358; first compound 8 µM) was 0.19. The relative viability (NCI-H2347; first compound 0.253 µM) was 0.329, the relative viability (NCI-H2347; first compound 0.8 µM) was 0.279 and the relative viability (NCI-H2347; first compound 2.53 µM) was 0.323. The relative viability (NCI-H2347; first compound 8 µM) was 0.179, the relative viability (COR-L23; first compound 0.253 µM) was 0.613 and the relative viability (COR-L23; first compound 0.8 µM) was 0.677. The relative viability (COR-L23; first compound 2.53 µM) was 0.678, the relative viability (COR-L23; first compound 8 µM) was 0.508 and the relative viability (NCI-H1975; first compound 0.253 µM) was 0.388. For the same compound, the relative viability (NCI-H1975; first compound 0.8 µM) was 0.201, the relative viability (NCI-H1975; first compound 2.53 µM) was 0.36 and the relative viability (NCI-H1975; first compound 8 µM) was 0.234. It also gave a relative viability (A-427; first compound 0.253 µM) of 0.731, a relative viability (A-427; first compound 0.8 µM) of 0.724 and a relative viability (A-427; first compound 2.53 µM) of 0.825. It also gave a relative viability (A-427; first compound 8 µM) of 0.765, a relative viability (NCI-H1437; first compound 0.253 µM) of 0.523 and a relative viability (NCI-H1437; first compound 0.8 µM) of 0.365. It also gave a relative viability (NCI-H1437; first compound 2.53 µM) of 0.611, a relative viability (NCI-H1437; first compound 8 µM) of 0.486 and a relative viability (SW 900; first compound 2.53 µM) of 1. It also gave a relative viability (SW 900; first compound 8 µM) of 0.76, a relative viability (NCI-H2009; first compound 0.253 µM) of 0.297 and a relative viability (NCI-H2009; first compound 0.8 µM) of 0.28. It also gave a relative viability (NCI-H2009; first compound 2.53 µM) of 0.283, a relative viability (NCI-H2009; first compound 8 µM) of 0.28 and a relative viability (SK-MES-1; first compound 0.253 µM) of 0.599. For the same compound, the relative viability (SK-MES-1; first compound 0.8 µM) was 0.628, the relative viability (SK-MES-1; first compound 2.53 µM) was 0.568 and the relative viability (SK-MES-1; first compound 8 µM) was 0.578. For the same compound, the relative viability (NCI-H520; first compound 0.253 µM) was 0.732, the relative viability (NCI-H520; first compound 0.8 µM) was 0.615 and the relative viability (NCI-H520; first compound 2.53 µM) was 0.835. It also gave a relative viability (NCI-H520; first compound 8 µM) of 0.452, a relative viability (NCI-H460; first compound 0.253 µM) of 0.0785 and a relative viability (NCI-H460; first compound 0.8 µM) of 0.13. The relative viability (NCI-H460; first compound 2.53 µM) was 0.127, the relative viability (NCI-H460; first compound 8 µM) was 0.19 and the relative viability (COR-L 105; first compound 0.253 µM) was 0.493. The relative viability (COR-L 105; first compound 0.8 µM) was 0.471, the relative viability (COR-L 105; first compound 2.53 µM) was 0.462 and the relative viability (COR-L 105; first compound 8 µM) was 0.416. It also gave a relative viability (NCI-H1650; first compound 0.253 µM) of 0.421, a relative viability (NCI-H1650; first compound 0.8 µM) of 0.432 and a relative viability (NCI-H1650; first compound 2.53 µM) of 0.551. For the same compound, the relative viability (NCI-H1650; first compound 8 µM) was 0.684, the relative viability (HCC-366; first compound 0.253 µM) was 0.33 and the relative viability (HCC-366; first compound 0.8 µM) was 0.353. The relative viability (HCC-366; first compound 2.53 µM) was 0.386, the relative viability (HCC-366; first compound 8 µM) was 0.264 and the relative viability (EPLC-272H; first compound 0.253 µM) was 0.284. It also gave a relative viability (EPLC-272H; first compound 0.8 µM) of 0.272, a relative viability (EPLC-272H; first compound 2.53 µM) of 0.34 and a relative viability (EPLC-272H; first compound 8 µM) of 0.313. For the same compound, the relative viability (HCC-44; first compound 0.253 µM) was 1.08, the relative viability (HCC-44; first compound 0.8 µM) was 0.829 and the relative viability (HCC-44; first compound 2.53 µM) was 1.11. It also gave a relative viability (HCC-44; first compound 8 µM) of 1.05, a relative viability (HCC-78; first compound 0.253 µM) of 0.728 and a relative viability (HCC-78; first compound 0.8 µM) of 0.633. The relative viability (HCC-78; first compound 2.53 µM) was 0.692, the relative viability (HCC-78; first compound 8 µM) was 0.822 and the relative viability (HOP-62; first compound 0.253 µM) was 0.34. For the same compound, the relative viability (HOP-62; first compound 0.8 µM) was 0.338, the relative viability (HOP-62; first compound 2.53 µM) was 0.4 and the relative viability (HOP-62; first compound 8 µM) was 0.363. For the same compound, the relative viability (EKVX; first compound 0.253 µM) was 0.391, the relative viability (EKVX; first compound 0.8 µM) was 0.32 and the relative viability (EKVX; first compound 2.53 µM) was 0.432. The relative viability (EKVX; first compound 8 µM) was 0.328.
